These results are taken from patent publication US9597375B2, “Coagulation and fibrinolytic cascades modulator” (The Board of Trustees of the University of Illinios, priority 2005, dated 2017).

Entries after “also recorded” stand apart in the source; their conditions may differ. Read-outs that look alike come from different tables or passages of the source.

For one experiment, the system named is pooled normal plasma. Put plainly: Dilute PT assay. It is filed as biochemical, human. Here is the method: The ability of polyP75 to influence the clotting time of a variety of clotting assays was systematically evaluated, employing commonly used plasma clotting assays including the prothrombin time (PT) assay, the partial thromboplastin time (PTT) assay, the activated partial thromboplastin time (aPTT) assay, a factor Xa clotting assay (XaT), and the thrombin time (TT) assay (FIG. 9). The PT assay, which is conducted by adding a thromboplastin reagent (a source of tissue factor activity and calcium ions) to plasma, drives coagulation through the extrinsic, or tissue factor pathway. The PTT and aPTT assays rely on the contact, or intrinsic, pathway of blood clotting. The XaT assay relies on the presence of factor V, prothrombin and fibrinogen in plasma, while the TT assay relies only on the presence of fibrinogen. Therefore, these assays assess different stages of the blood clotting cascades. All were performed in a coagulometer at 37° C.
Coagulometer-based plasma clotting assays—Recombinant human tissue factor was reconstituted into phospholipid vesicles as previously described, using a mixture of 20% phosphatidylserine and 80% phosphatidylcholine at a phospholipid:tissue factor molar ratio of 8700:1. Blank phospholipid vesicles (PCPS vesicles) composed of 20% phosphatidylserine and 80% phosphatidylcholine (and no tissue factor) were prepared as described. […]
The PT, XaT, aPTT and PTT clotting assays were typically performed in a STart coagulometer (Diagnostica Stago) by pre-incubating 50 μl of human plasma with 50 μl of the indicated clotting reagent at 37° C. for the following times: PT and XaT assays, 120 sec; aPTT and PTT assays, 180 sec. […] The time to clot formation was then measured relative to the point of addition of calcium chloride. The TT clotting assay was performed in the same coagulometer as follows: 50 μl human plasma was pre-warmed to 37° C. for 60 sec, after which 50 μl of pre-warmed TT reagent was added and the time to clot formation was measured. […]

In experiment [1] the test system is fibrinolysis in pooled normal plasma. Put plainly: Plasma clot lysis model, clotting initiated by calcium ions and thrombin in presence of plasminogen activator. It is filed as biochemical, human. As to the method: In order to study the effect of polyP on fibrinolysis independent of its effect on clotting times, the model was modified such that clotting was initiated by a mixture of calcium ions and thrombin in the presence of uPA (pooled normal plasma supplemented with 1.4 nM uPA). The amount of thrombin was chosen to yield rapid clotting times, permitting analyses to focus on the lytic phase only. […] In the absence of polyP, the clots subsequently lysed, with a 50% lysis time of 61 min in this experiment. […] The magnitude of the effect of polyP75 on the inhibition of fibrinolysis was dependent on the uPA concentration. At high uPA concentrations the effect of polyP75 could be masked, presumably reflecting a balance situation between uPA and polyP within the clot (data not shown).
Microplate-based assays of plasma clotting and fibrinolysis—Some of the clotting assays were conducted in flat-bottom, polystyrene, 96-well plates (Corning). Turbidity, a measure of clot formation, was quantified at 37° C. by measuring the absorbance of light at 405 nm in a VERSAmax microplate reader (Molecular Devices, Sunnyvale, Calif.). Reactions (100 μl final volume) typically contained the following final concentrations: 30% (v/v) human plasma; 8 mM Tris-HCl buffer, pH 7.4; 0.008% (v/v) Tween-20; 10.6 mM calcium chloride; and, variably, 10 nM thrombin. In some experiments, clotting reactions were initiated by calcium ions alone. In this case, a 1.25× reaction mixture of the above-described components (except calcium chloride) was prepared in a final volume of 80 μl per well. Clotting was then initiated by adding 20 μl of 53 mM calcium chloride and absorbance at 405 nm was monitored. In other experiments, clotting was initiated by a mixture of calcium ions and thrombin. In these cases, to the 80 μl reaction mixtures described above were added 10 μl of 106 mM calcium chloride followed immediately by 10 μl of 100 nM thrombin. […]

The target of another experiment is T1, TFPI (Homo sapiens, UniProt P10646).
T1 construct: Recombinant, full-length human TFPI was a kind gift of Dr. George Broze; gift of Dr. George Broze, Washington University St. Louis
T1 sequence (P10646 29-304): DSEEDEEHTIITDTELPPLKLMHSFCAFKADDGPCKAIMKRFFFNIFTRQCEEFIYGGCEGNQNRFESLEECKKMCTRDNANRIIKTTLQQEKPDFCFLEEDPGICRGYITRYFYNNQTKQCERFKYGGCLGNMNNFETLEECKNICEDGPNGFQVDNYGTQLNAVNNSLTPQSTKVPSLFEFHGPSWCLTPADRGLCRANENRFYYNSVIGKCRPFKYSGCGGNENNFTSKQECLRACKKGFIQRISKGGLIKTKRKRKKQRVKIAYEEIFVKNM
It is filed as biochemical.

Where [2] appears, read: polyP25-75 at 75 μM phosphate equivalents (FIG. 5), short phosphates data not shown.

Protocol for TFPI: The hypothesis that polyP might block the anticoagulant effect of TFPI was tested. This was examined in a dilute PT assay in which varying concentrations of recombinant TFPI were added to plasma samples. Plasma normally contains relatively low levels of free TFPI, so adding exogenous TFPI can dramatically lengthen PT clotting times.
Coagulometer-based plasma clotting assays—Recombinant human tissue factor was reconstituted into phospholipid vesicles as previously described [18], using a mixture of 20% phosphatidylserine and 80% phosphatidylcholine at a phospholipid:tissue factor molar ratio of 8700:1. Blank phospholipid vesicles (PCPS vesicles) composed of 20% phosphatidylserine and 80% phosphatidylcholine (and no tissue factor) were prepared as described [18]. The thromboplastin reagent for the PT assay was prepared by diluting relipidated tissue factor to a final concentration of 200 ng/ml tissue factor in TBSA buffer (50 mM Tris-HCl pH 7.5, 100 mM NaCl, 0.02% sodium azide, 0.1% (w/v) bovine serum albumin). The thromboplastin reagent for the dilute PT assay was prepared in the same manner as the reagent for the PT assay, except that the relipidated tissue factor was typically diluted to a final concentration of 1 ng/ml tissue factor in TBSA buffer containing 50 μM PCPS vesicles.
The PT, XaT, aPTT and PTT clotting assays were typically performed in a STart coagulometer (Diagnostica Stago) by pre-incubating 50 μl of human plasma with 50 μl of the indicated clotting reagent at 37° C. for the following times: PT and XaT assays, 120 sec; aPTT and PTT assays, 180 sec. Clotting was then initiated by adding 50 μl of 25 mM calcium chloride solution that had been pre-warmed to 37° C. The time to clot formation was then measured relative to the point of addition of calcium chloride. […] When the effect of TFPI on clotting was tested, TFPI was added to plasma at the indicated concentration immediately before use. When the effect of polyP on clotting was tested, polyP was added to the clotting reagent at the indicated concentration. […]

In the case of “TFPI: Recombinant, full-length human tissue factor pathway inhibitor”, the “dilute PT clotting time” value in the experiment with pooled normal plasma (100 ng/ml TFPI added to pooled normal plasma, no polyP (66 sec without TFPI)) is listed as “over 160 sec”. Also, the “dilute PT mean clotting time” value in the experiment with pooled normal plasma (200 ng/ml TFPI added, no polyP (59 sec without TFPI)) is 294 s. Besides, the “effect of added TFPI on dilute PT clotting time (in words)” value in the experiment with pooled normal plasma (TFPI added to pooled normal plasma, no polyP) is “greatly prolonged the dilute PT clotting time; also recorded: substantially prolonged”.

As to sodium tripolyphosphate [polyP3], the “ability to inhibit fibrinolysis, dependence on chain length” value (“ability to inhibit fibrinolysis” below) in experiment [1] (setting [2]) was “no discernable effect on fibrinolysis”. In addition, the “blocking of TFPI anticoagulant effect, dependence on chain length” value (shortened to “blocking of TFPI anticoagulant effect”) on TFPI (200 ng/ml TFPI, 75 μM phosphate equivalents in dilute thromboplastin reagent (FIG. 12)) is listed as “did not block TFPI anticoagulant function at all”.

Consider `O=P(O)(O)O` [Pi, sodium phosphate], for which the “ability to inhibit fibrinolysis” value in experiment [1] is “no discernable effect on fibrinolysis”. Further, the “blocking of TFPI anticoagulant effect” value on TFPI was “did not block TFPI anticoagulant function at all”.

As to `O=P(O)(O)OP(=O)(O)O` [PPi, pyrophosphate], in experiment [1] (setting [2]), the “ability to inhibit fibrinolysis” value is given as “no discernable effect on fibrinolysis”. The “blocking of TFPI anticoagulant effect” value on TFPI is reported as “did not block TFPI anticoagulant function at all”.
